Laboratory results as given in patent publication US9957236B2, “Selective inhibitors interfering with fibroblast growth factor receptor and FRS2 interaction for the prevention and treatment of cancer and other diseases” (LIMITED LIABILITY COMPANY “RUSSIAN PHARMACEUTICAL …, priority 2014, dated 2018).

Tests used:
[1] = test system: Mel Kor metastatic melanoma cells; assay: Crystal Violet proliferation assay, Mel Kor; type: cell-based; conditions: hardly expressed FGFR2, bFGF 100 ng/ml, 7 days
Description: This research used additional cell lines: SKOV3 (ovarian cancer, ATCC # HTB-77), HS578T (breast cancer, ATCC # HTB-126), T47D (breast cancer, ATCC #HTB-1336), modified line of non-small cells lung cancer A549, line of metastatic melanoma of skin Mel Kor (RF Patent No. 2287578), and additional study of antiangiogenic activity—cell line SVEC-4-10 (endothelial cells, ATCC #CRL-2181).
The cells were cultivated in environment RPMI-1640 (PANECO) (SKOV3, HS578T, T47D, Mel-Kor) or DMEM (PANECO) (SVEC-4-10) containing 10% of embryonal serum cattle (FCS, HyClone), 2 mM glutamine (PANECO), antibiotics (100 IU/mL penicillin and […] streptomycin (all PANECO)) at 37° C. and 5% CO2. Cells at 70-80% monolayer were used for the experiments.
The cells were planted in low density (30 t of cells/ml) in triplets on a 96-cavity plate in an environment containing 0.1% of FCS serum. […] Growth of cells was determined by the modified “Crystal Violet mitogenic method” for 7 days after the experiment start. […] The dye was dissolved in ethanol and measured on a spectrophotometer at 540-560 nm. The curve of cell proliferative activity inhibition was built by the dependence of the percent of the cell quantity (Y axis) on concentration of inhibitor RPT835 in the cavity of the plate (X axis). […]

[2] = test system: SUM-52 cells; assay: Proliferation of SUM-52 cells expressing FGFR2 IIIb; type: cell-based, human; conditions: SUM-52 (FGFR2 IIIb), RPT835 1 micron, FGF-1 100 ng/ml
Method: (§1) The research assessed the influence of inhibitor RPT835 determined by formula II of this invention, intervention with interaction of FGFR2 represented by two most frequent isoforms IIIb and IIIc with FRS2. For this, human cell line of embryonal osteoblasts (hFOB) expressing only FGFR2 […], and human cell line of breast cancer SUM-52 expressing FGFR2 IIIb (all main versions of isoform—C1, C2, C3) were chosen.
(§2) Cells were divided into the groups: • 1a) hFOB • 1b) hFOB, stimulating FGF-1 (100 ng/ml) • 1c) hFOB, cultivation with RPT835 (1 micron) and stimulation of FGF-1 (100 ng/ml) • 2a) SUM-52 • 2b) SUM-52, stimulation of FGF-1 (100 ng/ml) • 2c) SUM-52, cultivation with RPT835 (1 micron) and stimulation of FGF-1 (100 ng/ml)

[3] = test system: p44/42(MAPK), Akt, mTOR, p70S6; assay: Phosphorylation of intracellular kinases in KATO III cells; type: cell-based; conditions: FGF-2 and heparin
Method: In order to access the effect of inhibitor RPT835, characterized in his invention by formula II, on phosphorylation of the listed kinases, stomach cancer cells KATO III, which express FGFR2, was used. FGF-2 in concentration 1 mg/ml and heparin 10 mg/ml was added to the cells for stimulation of FGFR. RPT835 was added in various concentrations. Part of the cells left without addition of the inhibitor, and a part of the cells—without addition of both the inhibitor, and stimulating agents (control groups).
In order to assess the phosphorylation level, 2 standard methods were used: • Western-blotting using manual work. • Automatic capillary electrophoresis and immune-detection using automatic system Wes™ (ProteinSimple; SantaClara, Calif.).

[4] = test system: FGFR2; assay: FGFR phosphorylation in KATO III cells (Western blotting, Wes); type: cell-based
Method: For assessment of the effect of RPT835 inhibitor characterized in this invention with formula II, stomach cancer cells KATO III, which express FGFR2, were used for FRS2 phosphorylation. FGF-2 in concentration of 1 mg/ml and heparin 10 mg/ml were added to the cells for stimulation of FGFR. RPT835 was added in various concentrations. A part of the cells was left without adding the inhibitor, and a part of the cells—without adding either inhibitor, or stimulating agents (control group).
Two standard methods for assessment of the phosphorylation level of FGFR and FRS2: • Western blotting using manual work; • Automatic capillary electrophoresis and immunodetection using automatic system Wes™ (ProteinSimple; SantaClara, Calif.).
Like in Example 1, stomach cancer cells KATO III strongly expressing FGFR2 were used. A part of cells stimulated FGF-2 in concentration 1 mg/ml and heparin 10 mg/ml. The other part of the cells was left without stimulation. Inhibitor RPT835 in dose 1, 10, 100, 1000 nM was added to cells. The control group left without addition of RPT835.
The level of FGFR phosphorylation was assessed using standard Western-blotting and automatic capillary electrophoresis with immune-detection and use of automatic system Wes™ (ProteinSimple; SantaClara, Calif.).

[5] = test system: hFOB cells; assay: Proliferation of hFOB cells expressing FGFR2 IIIc; type: cell-based, human; conditions: RPT835 1 micron, FGF-1 100 ng/ml
Method: as §1, §2

## Cc1cc([N+](=O)[O-])c(NS(=O)(=O)c2cccc(C(=O)O)c2)cc1-c1cccnc1 [RPT835, 3-(N-(4-methyl-2-nitro-5-(pyridin-3-yl)phenyl)sulfamoyl)benzoic acid]
[1]
  inhibition of proliferative activity: did not block
[2]
  proliferation of cells: reliably suppressed proliferation
[3]
  activity (phosphorylation) of p44/42(MAPK), Akt, mTOR, p70S6 compared to cells stimulated only with FGF-2: did not change
[4]; KATO III cells, 1, 10, 100, 1000 nM
  phosphorylation of FGFR2 stimulated by FGF-2 (tyrosine kinase activity): did not have any effect
[4]; KATO III cells, with and without FGF-2 stimulation
  phosphorylation of general FGFR: without influence on phosphorylation of general FGFR
[5]
  proliferation of cells: reliably suppressed proliferation
